11 compounds from patent publication US12692257B2, “2,4,6-tri-substituted pyrimidine compounds as ATR kinase inhibitors” (BEIJING TIDE PHARMACEUTICAL CO., LTD., priority 2020, dated 2026) can be followed below.

Molecules are shown by their SMILES.

One assay relates to MV4-11 (leukemia). Nature of the assay: Cell proliferation inhibition in vitro, CellTiter-Glo, MV4-11. To be noted: Homo sapiens; MV4-11 cells, 120 hours, CellTiter-Glo; read-out: MV4-11/IC50/μM. It is filed as cell-based. As for the experimental part:
(§1) By detecting the effect of compounds on cell activity in vitro in tumor cell lines TOV21G (ovarian cancer) and MV4-11 (leukemia), the inhibitory effect of compounds on cell proliferation was studied in this assay.
(§2) TOV21G cells and MV4-11 cells were purchased from American Type Culture Collection (ATCC).
MV-4-11 cells were cultured in IMDM medium (containing 20% of FBS). About 10,000 cells were inoculated in each well of a 96-well culture plate, and treated by adding different concentrations (0-10 μM) of compounds to be assayed. Each group was assayed in triplicate. Blank wells (containing medium only) and control wells (inoculated cells without being treated with drug) were set. Cells were cultured for 120 hours. 40 μL of Cell Titer-Glo solutions were added to each well, and the cells were incubated with shaking for 20 min in the dark. 100 μL of solution was transferred from each well to a 96-well blank plate, and the luminescence value was read by Biotek Synergy HI multifunctional microplate reader. Inhibition rate (%)=100%×(control well−assay well)/(control well−blank well)
A general note: ATP-based viability assays read luminescence as a measure of living cells.
For `CNc1nc2ccccc2n1-c1nc(-c2c(C)nn(-c3cncc(C#N)c3)c2C)cc(N2CCOC[C@H]2C)n1` [Compound B4], the IC50 was determined as 0.25 µM.
Same read-out and setting: the figure for `CNc1nc2ccccc2n1-c1nc(-c2c(C)nn(-c3cnc(N)c(F)c3)c2C)cc(N2CCOC[C@H]2C)n1` [Compound B5] is 0.208 µM.
Same read-out and setting: the same measure for `CNc1nc2ccccc2n1-c1nc(-c2c(C)nn(-c3cccnc3)c2C)cc(N2CCOC[C@H]2C)n1` [Compound B6]: 0.439 µM; for `CNc1nc2ccccc2n1-c1nc(-c2c(C)nn(-c3ccc(OC)nc3)c2C)cc(N2CCOC[C@H]2C)n1` [Compound B7]: 0.549 µM; for `CC#Cc1cncc(-n2nc(C)c(-c3cc(N4CCOC[C@H]4C)nc(-n4c(NC)nc5ccccc54)n3)c2C)c1` [Compound B8]: 0.519 µM.
In the case of `CNc1nc2ccccc2n1-c1nc(-c2c(C)nn(-c3ccc(=O)[nH]c3)c2C)cc(N2CCOC[C@H]2C)n1` [Compound B9], the IC50 is 0.157 µM.
With `CNc1nc2ccccc2n1-c1nc(-c2c(C)nn(-c3cncc(C(N)=O)c3)c2C)cc(N2CCOC[C@H]2C)n1` [Compound B10], the IC50 worked out at 0.287 µM.
The same measure, in the same setting: the same measure for `Cc1nn(-c2cncc(F)c2)c(C)c1-c1cc(N2CCOC[C@H]2C)nc(-n2c(NCCO)nc3ccccc32)n1` [Compound B11]: 0.24 µM.
Turning to `Cc1nn(-c2cncc(F)c2)c(C)c1-c1cc(N2CCOC[C@H]2C)nc(-n2c(N)nc3ccccc32)n1` [Compound B12], the IC50 turned out to be 0.253 µM.
`Cc1nn(-c2cncc(F)c2)c(C)c1-c1cc(C23CCOCC2C3)nc(-c2cc(F)cc3[nH]ccc23)n1` (stereo not drawn) [Compound C2]: the IC50 worked out at 0.896 µM.
On the same count and under the same terms, the same measure for `Cc1nn(-c2cncc(F)c2)c(C)c1-c1cc(C23CCOCC2C3)nc(-c2cccc3[nH]ccc23)n1` (stereo not drawn) [Compound C3]: 0.632 µM.

For a further assay, the target named is ATR kinase (Homo sapiens, UniProt Q13535). The assay is described as follows: Assay of ATR kinase activity (time-resolved fluorescence, phosphorylation of p53-derived protein). Type of assay: biochemical.
ATR kinase, sequence (Q13535 whole entry): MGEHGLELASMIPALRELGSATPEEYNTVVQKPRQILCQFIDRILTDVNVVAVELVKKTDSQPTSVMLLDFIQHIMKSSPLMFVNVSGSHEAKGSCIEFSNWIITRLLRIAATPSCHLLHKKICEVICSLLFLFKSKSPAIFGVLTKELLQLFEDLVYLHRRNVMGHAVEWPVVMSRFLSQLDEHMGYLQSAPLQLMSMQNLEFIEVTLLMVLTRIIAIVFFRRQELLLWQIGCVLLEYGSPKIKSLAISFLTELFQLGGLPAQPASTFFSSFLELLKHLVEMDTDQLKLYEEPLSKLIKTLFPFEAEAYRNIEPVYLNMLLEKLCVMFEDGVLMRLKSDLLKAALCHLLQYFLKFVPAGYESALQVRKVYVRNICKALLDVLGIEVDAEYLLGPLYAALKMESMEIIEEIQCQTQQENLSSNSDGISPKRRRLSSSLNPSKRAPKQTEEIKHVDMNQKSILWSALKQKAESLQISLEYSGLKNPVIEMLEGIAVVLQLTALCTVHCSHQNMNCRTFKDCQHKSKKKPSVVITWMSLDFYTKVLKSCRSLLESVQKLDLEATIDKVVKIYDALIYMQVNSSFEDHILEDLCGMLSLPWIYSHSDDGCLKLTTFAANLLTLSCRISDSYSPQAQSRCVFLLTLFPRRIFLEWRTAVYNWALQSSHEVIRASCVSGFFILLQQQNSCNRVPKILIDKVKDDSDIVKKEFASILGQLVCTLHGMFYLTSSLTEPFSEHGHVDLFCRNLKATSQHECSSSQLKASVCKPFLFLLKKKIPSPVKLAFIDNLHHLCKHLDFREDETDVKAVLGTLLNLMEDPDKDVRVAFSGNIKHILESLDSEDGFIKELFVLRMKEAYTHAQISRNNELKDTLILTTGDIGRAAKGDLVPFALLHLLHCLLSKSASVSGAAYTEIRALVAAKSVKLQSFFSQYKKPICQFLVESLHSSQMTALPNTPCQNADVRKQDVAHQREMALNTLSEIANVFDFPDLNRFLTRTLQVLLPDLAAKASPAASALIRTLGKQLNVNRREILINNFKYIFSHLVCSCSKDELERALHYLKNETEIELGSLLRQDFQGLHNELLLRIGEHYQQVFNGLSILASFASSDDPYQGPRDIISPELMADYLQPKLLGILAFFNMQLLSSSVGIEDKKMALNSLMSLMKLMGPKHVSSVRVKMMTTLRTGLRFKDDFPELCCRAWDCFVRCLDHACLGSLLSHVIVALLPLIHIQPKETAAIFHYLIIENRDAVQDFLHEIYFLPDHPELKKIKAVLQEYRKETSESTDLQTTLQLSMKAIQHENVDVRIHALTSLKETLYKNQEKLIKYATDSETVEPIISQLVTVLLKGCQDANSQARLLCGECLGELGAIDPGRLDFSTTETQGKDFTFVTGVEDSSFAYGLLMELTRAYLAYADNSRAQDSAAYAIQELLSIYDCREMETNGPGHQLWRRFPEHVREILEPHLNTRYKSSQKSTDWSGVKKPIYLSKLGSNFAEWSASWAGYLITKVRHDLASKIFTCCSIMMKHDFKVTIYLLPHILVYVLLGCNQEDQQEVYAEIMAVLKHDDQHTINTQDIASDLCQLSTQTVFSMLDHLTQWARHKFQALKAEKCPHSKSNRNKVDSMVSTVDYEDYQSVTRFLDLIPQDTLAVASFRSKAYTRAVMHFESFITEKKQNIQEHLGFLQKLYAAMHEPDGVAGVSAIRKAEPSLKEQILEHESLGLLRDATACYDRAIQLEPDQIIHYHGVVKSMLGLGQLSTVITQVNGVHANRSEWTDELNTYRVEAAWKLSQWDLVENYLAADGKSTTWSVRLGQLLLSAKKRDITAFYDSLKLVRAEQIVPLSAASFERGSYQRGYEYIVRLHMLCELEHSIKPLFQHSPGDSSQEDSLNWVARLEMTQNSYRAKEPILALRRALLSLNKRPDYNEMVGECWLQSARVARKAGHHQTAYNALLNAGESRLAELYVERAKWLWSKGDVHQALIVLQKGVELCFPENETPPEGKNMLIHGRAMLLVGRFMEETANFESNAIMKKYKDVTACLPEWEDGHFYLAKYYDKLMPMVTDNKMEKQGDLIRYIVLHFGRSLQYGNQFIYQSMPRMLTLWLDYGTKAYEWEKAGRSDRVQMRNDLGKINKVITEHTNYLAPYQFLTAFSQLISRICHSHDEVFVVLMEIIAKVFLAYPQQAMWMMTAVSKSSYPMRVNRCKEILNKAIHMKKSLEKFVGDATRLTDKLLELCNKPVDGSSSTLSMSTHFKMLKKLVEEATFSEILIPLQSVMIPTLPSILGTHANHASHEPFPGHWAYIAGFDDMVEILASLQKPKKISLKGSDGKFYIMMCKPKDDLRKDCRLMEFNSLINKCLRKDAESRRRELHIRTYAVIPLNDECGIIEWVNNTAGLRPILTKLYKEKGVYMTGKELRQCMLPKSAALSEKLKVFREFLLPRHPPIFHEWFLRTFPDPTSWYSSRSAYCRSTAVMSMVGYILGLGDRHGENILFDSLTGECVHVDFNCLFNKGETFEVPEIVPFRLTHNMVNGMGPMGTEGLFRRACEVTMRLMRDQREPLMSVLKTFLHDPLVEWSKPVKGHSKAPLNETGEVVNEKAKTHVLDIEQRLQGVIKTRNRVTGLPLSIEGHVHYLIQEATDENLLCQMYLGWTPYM
ATR kinase, sequence (Q8WXE1 whole entry partner): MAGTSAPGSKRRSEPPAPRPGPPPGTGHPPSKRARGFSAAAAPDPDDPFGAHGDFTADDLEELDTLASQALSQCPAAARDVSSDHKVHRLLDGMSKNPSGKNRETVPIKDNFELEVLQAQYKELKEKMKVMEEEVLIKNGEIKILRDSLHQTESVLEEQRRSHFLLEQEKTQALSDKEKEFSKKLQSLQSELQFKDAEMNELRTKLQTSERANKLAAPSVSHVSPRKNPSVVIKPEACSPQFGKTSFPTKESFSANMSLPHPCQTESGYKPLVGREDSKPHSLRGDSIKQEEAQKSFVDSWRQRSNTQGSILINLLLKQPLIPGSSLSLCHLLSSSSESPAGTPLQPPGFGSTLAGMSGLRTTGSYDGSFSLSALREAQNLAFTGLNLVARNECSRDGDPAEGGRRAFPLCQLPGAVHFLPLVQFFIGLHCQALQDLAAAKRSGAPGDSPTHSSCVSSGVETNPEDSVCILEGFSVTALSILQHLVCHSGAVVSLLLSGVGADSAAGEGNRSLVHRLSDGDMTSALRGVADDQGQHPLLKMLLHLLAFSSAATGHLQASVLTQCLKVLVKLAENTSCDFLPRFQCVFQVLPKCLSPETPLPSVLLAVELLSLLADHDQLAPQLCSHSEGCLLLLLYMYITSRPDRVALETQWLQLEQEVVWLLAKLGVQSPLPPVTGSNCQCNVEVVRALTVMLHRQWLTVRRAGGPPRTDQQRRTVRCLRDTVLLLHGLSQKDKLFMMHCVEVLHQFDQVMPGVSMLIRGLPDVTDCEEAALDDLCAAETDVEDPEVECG
Conditions: not given
As for the experimental part:
Biotinylated protein derived from p53 (Eurofins, art. No.: 14-952) was phosphorylated with ATR kinase. The amount of phosphorylated protein was determined by time-resolved fluorescence in this assay. The amount of phosphorylated protein was detected by anti-p53-phospho-(serine 15)-K-specific antibody (Cisbio, art. No.: 61GSTDLA) and d2 labeled anti-GST antibody (Cisbio, art. No. 61P08KAE). Before the assay, the following working solutions were formulated as required: 1×reaction buffer (20 mM HEPES PH8.0, 1% glycerol, 0.01% Brij-35), dilution buffer (20 mM HEPES PH8.0, 1% glycerol, 0.01% Brij-35, 5 mM DTT and 1% BSA), stop solution (20 mM HEPES PH8.0, 1% glycerol, 0.01% Brij-35, 250 mM EDTA), detection buffer (50 mM HEPES pH7.0, 150 mM NaCl, 267 mM KF, 0.1% sodium cholate, 0.01% Tween-20, 0.0125% sodium azide). The reagents used above were purchased from Sigma or Invitrogen, except for those whose manufacturers were mentioned.
Operations were as follows:
4× serially diluted compound solutions were prepared with 1× reaction buffer to give 9 compound solutions with different concentrations, and 2.5 μL of the 4× serially diluted compound solutions were added to a 384-well analysis plate (784075, Greiner). 4×p53 substrate working solution (40 nM) was prepared with 1× reaction buffer, and 2.5 μL of the 4×p53 substrate working solution was added to a 384-well analysis plate. 4×ATR/ATRIP working solution (12.8 ng/μL) was prepared with dilution buffer, and 2.5 μL of the 4×pATR/ATRIP working solution was added to a 384-well analysis plate. 4×ATP working solution (2 mM) was prepared with deionized water, and 2.5 μL of the 4×ATP working solution was added to a 384-well analysis plate. The plates were incubated at room temperature in dark for 30 minutes. 5 μL of stop solution was added to the 384 analysis plates. Finally, 5 μL of assay mixture (0.084 ng/μL Anti-phospho-p53(ser15)-K and 5 ng/μL Anti-GST-d2) was added to the 384 well analysis plates, and incubated at room temperature overnight. The fluorescence signal was detected with ENVISION (Perkinelmer) instrument (excitation wavelength: 320 nm, emission wavelength: 665 nm and 615 nm). The inhibition rate in each well was calculated by the fluorescence intensity value in each well:ER (Emission Ratio)=(Fluorescence intensity at 665 nm/Fluorescence intensity at 615 nm); inhibition rate=(ER of positive−ER of assay compound)/(ER of positive−ER of negative)×100%. IC50 values of compounds were calculated by standard software for parameter fitting (GraphPad Prism 6.0).
On to `CNc1nc2ccccc2n1-c1nc(-c2c(C)nn(-c3cncc(C#N)c3)c2C)cc(N2CCOC[C@H]2C)n1` [Compound B4], for which the IC50 was found to be 17 nM.
The same measure, in the same setting: the same measure for `CNc1nc2ccccc2n1-c1nc(-c2c(C)nn(-c3cnc(N)c(F)c3)c2C)cc(N2CCOC[C@H]2C)n1` [Compound B5]: 16 nM; for `CNc1nc2ccccc2n1-c1nc(-c2c(C)nn(-c3cccnc3)c2C)cc(N2CCOC[C@H]2C)n1` [Compound B6]: 13 nM.
On the same count and under the same terms, the same measure for `CNc1nc2ccccc2n1-c1nc(-c2c(C)nn(-c3ccc(OC)nc3)c2C)cc(N2CCOC[C@H]2C)n1` [Compound B7]: 62 nM; for `CC#Cc1cncc(-n2nc(C)c(-c3cc(N4CCOC[C@H]4C)nc(-n4c(NC)nc5ccccc54)n3)c2C)c1` [Compound B8]: 69 nM; for `CNc1nc2ccccc2n1-c1nc(-c2c(C)nn(-c3ccc(=O)[nH]c3)c2C)cc(N2CCOC[C@H]2C)n1` [Compound B9]: 3 nM.
In turn, `CNc1nc2ccccc2n1-c1nc(-c2c(C)nn(-c3cncc(C(N)=O)c3)c2C)cc(N2CCOC[C@H]2C)n1` [Compound B10] displayed an IC50 of 5 nM.
The compound `Cc1nn(-c2cncc(F)c2)c(C)c1-c1cc(N2CCOC[C@H]2C)nc(-n2c(NCCO)nc3ccccc32)n1` [Compound B11] yielded an IC50 of 15 nM.
The same measure, in the same setting: the figure for `Cc1nn(-c2cncc(F)c2)c(C)c1-c1cc(N2CCOC[C@H]2C)nc(-n2c(N)nc3ccccc32)n1` [Compound B12] is 3 nM; for `Cc1nn(-c2cncc(F)c2)c(C)c1-c1cc(C23CCOCC2C3)nc(-c2cc(F)cc3[nH]ccc23)n1` (stereo not drawn) [Compound C2] it is 13 nM.
For the compound `Cc1nn(-c2cncc(F)c2)c(C)c1-c1cc(C23CCOCC2C3)nc(-c2cccc3[nH]ccc23)n1` (stereo not drawn) [Compound C3], the IC50 amounted to 16 nM.

For a further assay, the system named is TOV21G (ovarian cancer). The assay is described as follows: Cell proliferation inhibition in vitro, CellTiter-Glo, TOV21G. It is filed as cell-based. To be noted: Homo sapiens; TOV21G cells, 120 hours, CellTiter-Glo; read-out: TOV21G/IC50/μM. On the procedure:
as §1, §2
TOV21G cells were cultured in MCDB105/M199 medium (containing 15% of FBS), and used for assaying when the cell confluence reached 85% or more. About 1000 cells were inoculated in each well of a 96-well culture plate, and cultured for 24 hours. Different concentrations (0-10 μM) of compounds to be assayed were added to treat the cells. Each group was assayed in triplicate. Blank wells (containing medium only) and control wells (inoculated cells without being treated with drug) were set. Cells were cultured for 120 hours. 40 μL of Cell Titer-Glo solutions (Promega, #G7573) were added to each well, and the cells were incubated with shaking for 20 min in the dark. 100 μL of solution was transferred from each well to a 96-well blank plate (Corning, #3917), and the luminescence value was read by Biotek Synergy H1 multifunctional microplate reader.
Regarding `CNc1nc2ccccc2n1-c1nc(-c2c(C)nn(-c3cncc(C#N)c3)c2C)cc(N2CCOC[C@H]2C)n1` [Compound B4], the IC50 was 0.306 µM.
`CNc1nc2ccccc2n1-c1nc(-c2c(C)nn(-c3cnc(N)c(F)c3)c2C)cc(N2CCOC[C@H]2C)n1` [Compound B5]: the IC50 worked out at 0.383 µM.
Same read-out and setting: the figure for `CNc1nc2ccccc2n1-c1nc(-c2c(C)nn(-c3cccnc3)c2C)cc(N2CCOC[C@H]2C)n1` [Compound B6] is 0.483 µM.
The same measure, in the same setting: the figure for `CNc1nc2ccccc2n1-c1nc(-c2c(C)nn(-c3ccc(OC)nc3)c2C)cc(N2CCOC[C@H]2C)n1` [Compound B7] is 0.544 µM; for `CC#Cc1cncc(-n2nc(C)c(-c3cc(N4CCOC[C@H]4C)nc(-n4c(NC)nc5ccccc54)n3)c2C)c1` [Compound B8] it is 0.212 µM; for `CNc1nc2ccccc2n1-c1nc(-c2c(C)nn(-c3ccc(=O)[nH]c3)c2C)cc(N2CCOC[C@H]2C)n1` [Compound B9] it is 0.226 µM.
The same measure, in the same setting: the figure for `CNc1nc2ccccc2n1-c1nc(-c2c(C)nn(-c3cncc(C(N)=O)c3)c2C)cc(N2CCOC[C@H]2C)n1` [Compound B10] is 0.219 µM.
`Cc1nn(-c2cncc(F)c2)c(C)c1-c1cc(N2CCOC[C@H]2C)nc(-n2c(NCCO)nc3ccccc32)n1` [Compound B11]: the IC50 was 0.276 µM.
For the compound `Cc1nn(-c2cncc(F)c2)c(C)c1-c1cc(N2CCOC[C@H]2C)nc(-n2c(N)nc3ccccc32)n1` [Compound B12], the IC50 was found to be 0.257 µM.
The same measure, in the same setting: the same measure for `Cc1nn(-c2cncc(F)c2)c(C)c1-c1cc(C23CCOCC2C3)nc(-c2cc(F)cc3[nH]ccc23)n1` (stereo not drawn) [Compound C2]: 1.07 µM; for `Cc1nn(-c2cncc(F)c2)c(C)c1-c1cc(C23CCOCC2C3)nc(-c2cccc3[nH]ccc23)n1` (stereo not drawn) [Compound C3]: 0.667 µM.
